Several values for one entry are separate records, joined by “and”; a condition that tells them apart may be missing. Identical values can stand only once.
How the values were obtained:
[1] = system: aqueous solutions of biosimilar AVASTIN®; test: Viscosity of concentrated aqueous solutions of biosimilar AVASTIN with ionic liquids (mVROC microfluidic viscometer); format: physicochemical; settings: 25° C., pH 7
Description: (§1) All viscosities of well-mixed aqueous mAb solutions were measured using either a mVROC microfluidic viscometer (RheoSense) or a DV2T cone and plate viscometer (Brookfield; “C & P”) after a 5 minute equilibration at 25 °C (unless otherwise indicated). The mVROC viscometer was equipped with an “A” or “B” chip, each manufactured with a 50 micron channel. Typically, 0.10 mL of protein solution was back-loaded into a gastight microlab instrument syringe (Hamilton; 100 μL), affixed to the chip, and measured at multiple flow rates, approximately 20%, 40%, and 60% of the maximum pressure for each chip. […] An average absolute viscosity and standard deviation was then calculated from at least these three measurements. The C & P viscometer was equipped with a CPE40 or CPE52 spindle (cone angle of 0.8° and 3.0°, respectively) and 0.50 mL samples were measured at multiple shear rates between 2 and 400 s^−1. […] An extrapolated zero-shear viscosity was then determined from a plot of dynamic viscosity versus shear rate for the samples measured on a DV2T cone and plate viscometer. The extrapolated zero-shear viscosities reported are the average and standard deviation of at least three measurements.
(§2) First, Polysorbate 20 was removed using DETERGENT-OUT® TWEEN Medi Columns (G-Biosciences). […] The dried protein cakes, containing protein and buffer salts or viscosity-reducing ionic liquid, were reconstituted to a final volume of approximately 0.10-1.30 mL. […] Then, an appropriate amount of viscosity-reducing ionic liquid solution (pH 7.0) was added to each aliquot such that upon reconstitution with water, the final excipient concentration was 0.1-0.5 M. The protein solutions were then freeze-dried. The dried protein cakes, containing protein and viscosity-reducing ionic liquid (and a negligible amount of buffer salts) were reconstituted to a final volume of approximately 0.1 mL and viscosity-reducing ionic liquid concentration as indicated in the tables below. The final concentration of mAb in solution was determined by light absorbance at 280 nm using an experimentally determined extinction coefficient of 1.7 L/g·cm and viscosities reported were measured on a RheoSense mVROC microfluidic viscometer.

[2] = system: aqueous solutions of TYSABRI®; test: Viscosity of concentrated aqueous solutions of TYSABRI with excipients (mVROC microfluidic viscometer); format: physicochemical; settings: for Viscosity: 25° C., pH 7
Description: as §1
The dried protein cakes, containing protein and buffer salts or viscosity-reducing ionic liquid, were reconstituted to a final volume of approximately 0.10-1.30 mL. […] Then, an appropriate amount of viscosity-reducing ionic liquid solution (pH 7.0) was added to each aliquot such that upon reconstitution with water, the final excipient concentration was 0.1-0.5 M. The protein solutions were then freeze-dried. The dried protein cakes, containing protein and viscosity-reducing ionic liquid (and a negligible amount of buffer salts) were reconstituted to a final volume of approximately 0.1 mL and viscosity-reducing ionic liquid concentration as indicated in the tables below. The final concentration of mAb in solution was determined by light absorbance at 280 nm using an experimentally determined extinction coefficient of 1.7 L/g·cm and viscosities reported were measured on a RheoSense mVROC microfluidic viscometer.
(§3) Viscosities were measured using a RheoSense mVROC microfluidic viscometer equipped with an “A” or “B” chip.

[3] = system: aqueous solutions of HERCEPTIN®; test: Viscosity of concentrated aqueous solutions of HERCEPTIN with ionic liquids (mVROC microfluidic viscometer); format: physicochemical; settings: for Viscosity: 25° C., pH 7
Excerpt: The protein was formulated either with phosphate buffer or with various viscosity-reducing ionic liquids at concentrations in the table listed below.

[4] = system: aqueous solutions of biosimilar RITUXAN®; test: Viscosity of concentrated aqueous solutions of biosimilar RITUXAN with BIM (mVROC microfluidic viscometer); format: physicochemical; settings: 25° C., pH 7
[5] = system: aqueous solutions of REMICADE®; test: Viscosity of concentrated aqueous solutions of REMICADE with and without BIM (mVROC microfluidic viscometer); format: physicochemical
Description: A commercially-obtained biosimilar AVASTIN® containing pharmaceutical excipients (Polysorbate 20, phosphate and citrate buffers, mannitol, and NaCl) was purified. […] For samples containing 4-ethyl-4-methylmorpholinium methyl carbonate (EMMC), protein was thoroughly buffer exchanged into 2 mM PB (pH 7.0). For samples buffer exchanged into 20 mM PB (PB control samples) or 20 mM viscosity-reducing ionic liquid, the collected protein solution was freeze-dried. […] Samples buffer exchanged into 2 mM PB were first aliquoted.

[6] = system: aqueous solutions of VECTIBIX®; test: Viscosity of concentrated aqueous solutions of VECTIBIX with and without BIM (mVROC microfluidic viscometer); format: physicochemical; settings: 0.50M BIM, 25° C., pH 7
[7] = system: aqueous solutions of biosimilar ERBITUX®; test: Viscosity of concentrated aqueous solutions of biosimilar ERBITUX at various BIM concentrations (mVROC microfluidic viscometer); format: physicochemical; settings: for Viscosity: 25° C., pH 7
Description: All viscosities of well-mixed aqueous mAb solutions were measured using either a mVROC microfluidic viscometer (RheoSense) or a DV2T cone and plate viscometer (Brookfield; “C & P”) after a 5 minute equilibration at 25 °C (unless otherwise indicated). The mVROC viscometer was equipped with an “A” or “B” chip, each manufactured with a 50 micron channel. Typically, 0.10 mL of protein solution was back-loaded into a gastight microlab instrument syringe (Hamilton; 100 μL), affixed to the chip, and measured at multiple flow rates, approximately 20%, 40%, and 60% of the maximum pressure for each chip. […] An average absolute viscosity and standard deviation was then calculated from at least these three measurements. The C & P viscometer was equipped with a CPE40 or CPE52 spindle (cone angle of 0.8° and 3.0°, respectively) and 0.50 mL samples were measured at multiple shear rates between 2 and 400 s^−1. Specifically, samples were measured for 30 seconds each at 22.58, 24.38, 26.25, 28.13, 30, 31.88, 45, 67.5, 90, 112.5, 135, 157.5, 180, 202.5, 247, 270, 292.5, 315, 337.5, 360, 382, 400 s^−1, starting at a shear rate that gave at least 10% torque, and continuing until instrument torque reached 100%. An extrapolated zero-shear viscosity was then determined from a plot of dynamic viscosity versus shear rate for the samples measured on a DV2T cone and plate viscometer. The extrapolated zero-shear viscosities reported are the average and standard deviation of at least three measurements.
as §2, §3

[8] = system: Sprague-Dawley rats; test: Subcutaneous injection toxicity and irritation study (Draize evaluation scores, microscopic examination of injection sites); format: in vivo, rat
Description: Clinical observations were recorded for any pharmaco-toxicological signs at pre-dose, immediately post-dose, at 1 and 4 hours (±15 minutes) post-dose, and daily thereafter. Irritation, if any, at injection sites was scored using the Draize evaluation scores pre-dose, immediately post-dose, at 1 hour (±15 minutes) post dose, and prior to sacrifice.

[9] = system: respiratory syncytial virus infection; settings: two Phase III clinical trials, pediatric population; cited from earlier work
[10] = studies evaluating long-term clinical outcomes; cited from earlier work
[11] = [IL] 0.5 M, [Protein] 230 mg/mL

4-ethyl-4-methylmorpholinium methylcarbonate [EMMC]
Viscosity ([1]; [IL] 0.4 M, [Protein] 217 mg/mL): 38.7 ± 0.3 cP | Viscosity reduction ([2]; 0.10 M EMMC): up to 7 fold | Viscosity ([2]; [IL] 0.1 M, [Protein] 232 mg/mL): 24.7 ± 0.3 cP | Viscosity reduction ([3]; 0.10 M EMMC): ~3 fold | Viscosity ([3]; [IL] 0.10 M, [Protein] 253 mg/mL): 60.2 ± 4.3 cP

Cl.N=C(N)NCCC[C@H](N)C(=O)O [Arg HCl, Arginine-HCl, reference compound]
Viscosity ([2]; [IL] 0.25 M, [Protein] 228 mg/mL): 37 ± 0.1 cP

CCCCn1cc[n+](CCCCS(=O)(=O)[O-])c1 [BIM, 4-(3-butyl-1-imidazolio)-1-butane sulfonate]
Viscosity ([1]; [IL] 0.2 M, [Protein] 215 mg/mL): 61.8 ± 0.3 cP | Viscosity ([1]; [IL] 0.4 M, [Protein] 215 mg/mL): 47.3 ± 2.3 cP | Viscosity ([1]; [IL] 0.5 M, [Protein] 215 mg/mL): 41.9 ± 0.8 cP | Viscosity ([4]; 0.40M BIM, [Protein] 191 ± 2 mg/mL): 43.9 ± 1.6 cP | Viscosity ([4]; 0.40M BIM, [Protein] 203 ± 4 mg/mL): 65.4 ± 0.4 cP | Viscosity ([4]; 0.40M BIM, [Protein] 213 ± 4 mg/mL): 75.4 ± 1.0 cP | Viscosity ([4]; 0.50M BIM, [Protein] 213 ± 4 mg/mL): 83.9 ± 0.8 cP | Viscosity ([2]; [IL] 0.4 M, [Protein] 234 mg/mL): 43.6 ± 1.1 cP | Viscosity ([5]; 0.50M BIM, REMICADE ® 222 ± 6 mg/mL, 25° C., pH 7): 71.2 ± 2.9 cP | Viscosity reduction ([5]; 0.50 M BIM, maximum over the proteins examined (REMICADE and VECTIBIX)): up to 22 fold | Viscosity ([6]; VECTIBIX ® 233 ± 4 mg/mL): 51.1 ± 3.7 cP | Viscosity ([6]; VECTIBIX ® 291 ± 3 mg/mL): 170 ± 2 cP | Viscosity ([3]; [IL] 0.40 M, [Protein] 223 mg/mL): 43.8 ± 0.4 cP | Viscosity ([7]; [BIM] 0.4 M, [biosimilar ERBITUX ®] 270 mg/mL): 86.7 ± 2.1 cP | Viscosity ([7]; [BIM] 0.5 M, [biosimilar ERBITUX ®] 257 mg/mL): 75.0 ± 0.3 cP | Viscosity ([7]; [BIM] 0.75 M, [biosimilar ERBITUX ®] 263 mg/mL): 148 ± 2 cP | Viscosity ([7]; [BIM] 1.0 M, [biosimilar ERBITUX ®] 279 mg/mL): 145 ± 2 cP | Viscosity ([7]; [BIM] […], [biosimilar ERBITUX ®] 267 mg/mL): 347 ± 5 cP | Dependence of viscosity-lowering effect on BIM concentration ([7]; various concentrations of BIM, 0.3-[…]): dose dependent manner up to about 0.50 M | Observed consequences of injections compared with saline ([8]; 0.5 mL of 0.25 M BIM subcutaneously vs phosphate-buffered saline, throughout the study): macroscopically similar | Irritation at injection sites ([8]; 0.5 mL of 0.25 M BIM subcutaneously, 1-3 daily injections): no irritation to slight irritation | Edema scores (Draize) at injection sites ([8]; 0.5 mL of 0.25 M BIM subcutaneously, 1-3 daily injections, various time points): 0-2 | Microscopic examination of injection sites ([8]; 0.5 mL of 0.25 M BIM subcutaneously, no longer evident by day 4): very minor, clinically insignificant, irritative effect

CCCCn1cc[n+](C)c1.CS(=O)(=O)[O-] [BMI Mes, 1-butyl-3-methylimidazolium methanesulfonate]
Viscosity ([1]; [IL] 0.4 M, [Protein] 214 mg/mL): 36.3 ± 0.2 cP | Viscosity ([1]; [IL] 0.4 M, [Protein] 229 mg/mL): 69.2 ± 5.2 cP | Viscosity ([1]; [IL] 0.5 M, [Protein] 221 mg/mL): 46.5 ± 1.7 cP | Viscosity [1, 11]: 82.0 ± 3.0 cP | Viscosity ([2]; [IL] 0.4 M, [Protein] 232 mg/mL): 35.2 ± 5.0 cP | Viscosity ([3]; [IL] 0.40 M, [Protein] 227 mg/mL): 47.8 ± 1.0 cP

CCCC[N+]1(C)CCCC1.[Cl-] [BMP Chloride, 1-butyl-1-methylpyrrolidinium chloride]
Viscosity ([1]; [IL] 0.4 M, [Protein] 227 mg/mL): 63.0 ± 8.4 cP | Viscosity [1, 11]: 60.8 ± 0.1 cP | Viscosity ([2]; [IL] 0.4 M, [Protein] 249 mg/mL): 42.7 ± 1.9 cP | Viscosity ([3]; [IL] 0.40 M, [Protein] 210 mg/mL): 55.6 ± 2.0 cP | Viscosity ([3]; [IL] 0.40 M, [Protein] 244 mg/mL): 99.2 ± 2.2 cP

palivizumab: humanized mAb against an epitope in the A antigenic site of the F protein of respiratory syncytial virus
Reduction of the risk of hospitalization due to respiratory syncytial virus infection [9]: 55% and 45%

vedolizumab: mAb being developed by Millennium Pharmaceuticals for ulcerative colitis and Crohn's disease
Patients achieving clinical remission [10]: ~60%

From patent publication US11986526B2, “Liquid protein formulations containing 4-ethyl-4-methylmorpholinium methylcarbonate (EMMC)” (Eagle Biologics, Inc., priority 2013, dated 2024)
